# Reference: PubChem BioAssay AID651974 (The Scripps Research Institute Molecular Screening Center, 2013)
# Activity calls are given as the source filed them. The rule behind the calls is not given here.
# Test: GAL4-VP16 transactivation reporter inhibitors, late-stage follow-up, counter-screen for LRH-1 inverse agonist project, cell-based, luminescence, dose response (AID 651974)
# Details: HEK293 cells transfected with Gal4-VP16 and pGL4.31 luciferase reporter
row,Compound,IC50
1,Cc1ccc(NC(=O)CSc2nc3[nH]c(=O)cc(O)c3s2)c(Br)c1,> 35.9 µM (inactive)
2,COc1ccc(NC(=O)CSc2ccc3c(c2)OCCO3)cc1,> 35.9 µM (inactive)
3,CC1SC(C)C(=O)N(CC(=O)Nc2ccc3c(c2)OCO3)C1=O (configuration not stated),> 35.9 µM (inactive)
4,CC(C)CC1(C)NC(=O)N(CC(=O)Nc2ccc3c(c2)OCCO3)C1=O (configuration not stated),> 35.9 µM (inactive)
5,COc1ccc(CCNC(=O)COC(=O)c2cc(Cl)nc(Cl)c2)cc1,> 35.9 µM (inactive)
6,CCc1c(C)nc(SCC(=O)Nc2ccc3c(c2)OCCO3)[nH]c1=O,> 35.9 µM (inactive)
7,CCOc1ccc(NC(=O)CN2CCN(CC(=O)Nc3ccc(OC)cc3)CC2)cc1,> 35.9 µM (inactive)
8,CCc1cc(=O)oc2c(C)c(OCC(=O)NCCN3CCOCC3)ccc12,> 35.9 µM (inactive)
9,COc1ccc(CCNC(=O)CSc2nn3c(=O)c(C)nnc3s2)cc1OC,> 35.9 µM (inactive)
10,CCCc1cc(=O)oc2c(C)c(OCC(=O)NC3CC(C)(C)NC(C)(C)C3)ccc12,> 35.9 µM (inactive)
11,Cc1ccc(NC(=O)COC(=O)c2cc(=O)c3ccccc3o2)c(Br)c1,> 35.9 µM (inactive)
12,Cc1ccc2cccc(OCC(=O)NCCC3=CCCCC3)c2n1,> 35.9 µM (inactive)
13,Cc1sc(NC(=O)C(C)C)c(C(=O)Nc2ccccc2)c1C,> 35.9 µM (inactive)
14,O=C(Nc1ccc(S(=O)(=O)N2CCOCC2)cc1)c1cccc([N+](=O)[O-])c1,> 35.9 µM (inactive)
15,COc1ccc(CC(NC(C)=O)C(=O)NC2CCN(c3nnnn3-c3ccccc3)CC2)cc1 (configuration not stated),> 35.9 µM (inactive)
16,CC(=O)Nc1ncc(Cc2cc(Cl)ccc2Cl)s1,> 35.9 µM (inactive)
17,COCCn1c(C)cc(/C=C(\C#N)C(=O)OCC(=O)Nc2ccc(S(N)(=O)=O)cc2)c1C,> 35.9 µM (inactive)
18,COc1ccc(NS(=O)(=O)c2ccc(OCC(=O)N3CCN(C)CC3)cc2)cc1Cl,> 35.9 µM (inactive)
19,COc1ccc(NC(=O)CN2C(=O)NC3(CCCC3)C2=O)cc1,> 35.9 µM (inactive)
20,N#CCSc1ccccc1NC(=O)CN1C(=O)C2CC=CCC2C1=O (configuration not stated),> 35.9 µM (inactive)
21,COc1ccc(-n2c(N)c(C(=O)NCc3cccnc3)sc2=S)cc1,> 35.9 µM (inactive)
22,COc1ccc(NC(=O)CSc2nc(N)c(-c3ccccc3)c(=O)[nH]2)cc1,> 35.9 µM (inactive)
23,CCOc1ccc(OCCN2C(=O)NC(Cc3c[nH]c4ccccc34)C2=O)cc1 (configuration not stated),> 35.9 µM (inactive)
24,O=C(CSc1nc(=O)n2cc(Cl)ccc2n1)Nc1ccc2c(c1)OCCO2,> 35.9 µM (inactive)

row,Compound,IC50
1,CCOc1ccc(OCCC(=O)OCC(=O)Nc2ccc3c(c2)OCCO3)cc1,> 35.9 µM (inactive)
2,Cc1ccc(-c2csc(NC(=O)c3ccc([N+](=O)[O-])o3)n2)cc1,> 35.9 µM (inactive)
3,Cc1ccc(NC(=O)COC(=O)C(NS(=O)(=O)c2ccc(Cl)cc2)C(C)O)c(Br)c1 (configuration not stated),> 35.9 µM (inactive)
4,Cc1cc(C)c2sc(NC(=O)c3ccc([N+](=O)[O-])o3)nc2c1,> 35.9 µM (inactive)
5,COc1ccc(CCNC(=O)COC(=O)c2cccn2C)cc1,> 35.9 µM (inactive)
6,CCn1c(SCC(=O)Nc2ccc(Cl)cc2)nnc1C1CC1,> 35.9 µM (inactive)
7,COc1ccc(CCNC(=O)COC(=O)C23CC4CC(CC(C4)C2)C3)cc1,> 35.9 µM (inactive)
8,O=c1[nH]c(Nc2ccc3c(c2)OCCO3)nnc1Cc1ccccc1,> 35.9 µM (inactive)
9,CC(=O)Nc1ccc(N=c2cc([N+](=O)[O-])cc(Cl)n2O)cc1,> 35.9 µM (inactive)
10,CCCc1cc(=O)oc2cc(OCC(=O)NCCc3ccc(S(N)(=O)=O)cc3)ccc12,> 35.9 µM (inactive)
11,COCC(=O)NC1CCN(CC(=O)Nc2ccc(OC)cc2[N+](=O)[O-])CC1,> 35.9 µM (inactive)
12,O=C(NCC1CCCO1)c1ccc(NC(=O)c2cccc([N+](=O)[O-])c2)cc1 (configuration not stated),> 35.9 µM (inactive)
13,COc1ccc(NC(=O)COC(=O)c2c(-c3ccccc3)noc2C)cc1,> 35.9 µM (inactive)
14,CCCc1cc(=O)oc2c(C)c(OCC(=O)NCCCn3ccnc3)ccc12,> 35.9 µM (inactive)
15,O=C(COC(=O)c1ccc(=O)n(Cc2ccccc2)n1)Nc1ccc2c(c1)OCCO2,> 35.9 µM (inactive)
16,CCCc1cc(=O)oc2c(C)c(OCC(=O)NCCN3CCOCC3)ccc12,> 35.9 µM (inactive)
17,Cc1cc(OCC(=O)Nc2nccs2)c2c(C)cc(=O)oc2c1,> 35.9 µM (inactive)
18,CC(=O)c1ccc(NC(=O)C(C)O/N=C(\N)c2ccccc2)cc1 (configuration not stated),> 35.9 µM (inactive)
19,Cc1ccn2c(=O)nc(SCC(=O)Nc3ccc4c(c3)OCCO4)nc2c1,> 35.9 µM (inactive)
20,COc1ccc(CCNC(=O)CSc2ccc(NC(C)=O)cc2)cc1OC,> 35.9 µM (inactive)
21,CCOc1ccc(NC(=O)COC(=O)COc2cccc3c2OC(C)(C)C3)cc1,> 35.9 µM (inactive)
22,O=C1CCCN2N=C(SCC(=O)Nc3ccc(Br)cc3)SC2=N1,> 35.9 µM (inactive)
23,COC(=O)c1ccc(NC(=O)CSc2nncn2-c2cccnc2)cc1,> 35.9 µM (inactive)
